Here are results for 11 compounds from PubChem BioAssay (NCI).

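How tested: cells in 96-well plates exposed to compound for 48 hours at five concentrations. TGI: total growth inhibition.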 Bounds are passed on as bounds.

Holding throughout (test): inhibition of tumour cell growth, NCI panel, 48 h
Assay [1] has as its system OVCAR-8 ovarian.
Assay [2] deals with COLO 205 colon.
The subject of assay [3] is DU-145 prostate.
Assay [4] concerns A498 renal.
The subject of assay [5] is T-47D breast.
Assay [6] concerns CAKI-1 renal.
In assay [7] the test system is SF-268 CNS.
Assay [8] concerns MDA-MB-435.
Assay [9] concerns SK-MEL-28 melanoma.
For assay [10], the system named is RXF 393 renal.

With `CC(=O)OC1COC(Nc2nc(NCc3ccccc3)n(C)c(=O)c2N=O)C(OC(C)=O)C1OC(C)=O` (stereo not given), the TGI in assay [1], in [2], in [3], in assay [4], in assay [5] and in [6] was above 10 µM in each case. The TGI in assay [7], in assay [8], in assay [9] and in [10] was above 10 µM each time.
As to `NC1=CN2c3ccccc3N(CC(=O)O)C2C=C1` (stereo not given), the TGI in [1], in assay [2], in assay [3], in assay [4], in assay [5] and in assay [6] was above 100 µM throughout. In addition, the TGI in assay [7], in assay [8], in assay [9] and in assay [10] was above 100 µM each time.
Consider `COc1cc2c(cc1OC)C1(COc3cc(O)c(O)c(O)c3C1=O)C2` (stereo not given), for which the TGI in [1], in [2], in assay [3], in assay [4], in [5] and in assay [6] was above 50 µM in each case. Moreover, the TGI in [7], in assay [8], in assay [9] and in [10] was above 50 µM each time.
For `Clc1ccc(C2Nc3ccccc3C3=NCCN32)cc1` (stereo not given), the TGI in assay [1] is 38.3 µM; in assay [2] it was 25.7 µM; in [3], above 100 µM; in assay [4] it was 63.7 µM; in [5], 46.9 µM; in assay [6], above 100 µM. The TGI in assay [7] was 84.5 µM; in [8], 39.8 µM; in [9], 34.6 µM; in [10], 58.8 µM.
On to `O=C(N/N=C(/COc1ccc([N+](=O)[O-])cc1)N=Cc1ccncc1)c1ccncc1`, for which the TGI in assay [1], in [2], in assay [3], in assay [4], in [5] and in assay [6] was above 100 µM each time. For the same compound, the TGI in assay [7], in [8], in assay [9] and in [10] was above 100 µM throughout.
In the case of `O=C(O)Cc1ccc2[nH]c(O)c(C3=Nc4ccccc4C3=O)c2c1`, the TGI in [1] was above 100 µM; in assay [2] it was 92.1 µM; in assay [3] it was above 100 µM; in [4] it was 98.7 µM; in assay [5], above 100 µM; in assay [6], above 100 µM. Besides, the TGI is above 100 µM in [7], above 100 µM in [8], above 100 µM in assay [9] and 58.5 µM in [10].
With `CC(=O)N=C1N(/C=C2\C(=O)Oc3ccccc3C2=O)C(=O)/C(=C/c2ccc(NC(C)=O)cc2)N1C`, the TGI in assay [1], in assay [2], in assay [3], in assay [4], in [5] and in [6] was above 100 µM in each case. The TGI in [7], in assay [8], in assay [9] and in assay [10] was above 100 µM throughout.
With `Cc1c2c(OCCN3CCCCC3)nn(C)c(=O)c2c(C)n1-c1ccccc1`, the TGI in assay [1] was above 100 µM; in [2], 35.5 µM; in assay [3] it was above 100 µM; in assay [4], 36.9 µM; in assay [5] it was above 100 µM; in [6], above 100 µM. Moreover, the TGI in assay [7] was above 100 µM; in [8], above 100 µM; in [9] it was 84.7 µM; in [10], above 100 µM.
For the compound `COc1cc2c(=O)cnoc2cc1O`, the TGI in [1], in assay [2], in assay [3], in [4], in [5] and in [6] was above 100 µM each time. Besides, the TGI in assay [7], in assay [8], in [9] and in assay [10] was above 100 µM in each case.
As for `CCOC(=O)c1sc2[n+](c1C)C(=O)/C(=C/c1ccc([N+](=O)[O-])cc1)S2`, the TGI in assay [1] was 69.9 µM; in assay [2] it was 68.7 µM; in [3], 92.3 µM; in assay [4], above 100 µM; in assay [5], 77.2 µM; in assay [6], 37.7 µM. Also, the TGI was 47.3 µM in [7], 46.2 µM in assay [8], above 100 µM in assay [9] and 81.5 µM in assay [10].
Consider `C=C1C(=O)O[C@@H]2C[C@]3(C)CC[C@]4(C)[C@H](CC[C@@H]5[C@@]6(C)CCC(=O)C(C)(C)[C@@H]6CC[C@]54C)[C@H]3[C@H]12`, for which the TGI turned out to be 38.7 µM in [1]; 21.6 µM in assay [2]; 34.7 µM in assay [3]; 35.3 µM in [4]; 34 µM in assay [5]; 30.2 µM in assay [6]. Besides, the TGI in assay [7] came to 46.1 µM; in [8] it was 25.4 µM; in [9], 38.4 µM; in assay [10], 34.3 µM.
